Reference: PMC12289626, “Aloin protects against UVB-induced apoptosis by modulating integrated signaling pathways” (Frontiers in Pharmacology, 2025)

Columns and labels:
JNK1 = biological target: T1, JNK1 (Homo sapiens, UniProt P45983); assay: ADP-Glo kinase assay with Promega JNK1 Kinase Enzyme System; assay type: biochemical
T1 construct: gene MAPK8

p38α = biological target: T2, p38α (Homo sapiens, UniProt Q16539); assay: ADP-Glo kinase assay with Promega p38α Kinase Enzyme System; assay type: biochemical
T2 construct: gene MAPK14
T2 sequence (Q16539 2-360): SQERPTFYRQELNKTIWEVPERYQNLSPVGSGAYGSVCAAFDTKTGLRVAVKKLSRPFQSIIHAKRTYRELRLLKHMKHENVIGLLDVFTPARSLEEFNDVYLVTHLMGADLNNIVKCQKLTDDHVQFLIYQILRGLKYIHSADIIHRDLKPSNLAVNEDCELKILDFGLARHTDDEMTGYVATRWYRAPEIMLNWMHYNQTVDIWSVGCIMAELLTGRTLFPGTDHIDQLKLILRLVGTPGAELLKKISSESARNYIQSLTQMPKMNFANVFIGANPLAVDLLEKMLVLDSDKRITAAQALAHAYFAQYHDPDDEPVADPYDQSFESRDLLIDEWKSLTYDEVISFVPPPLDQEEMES

T1 sequence (P45983 whole entry): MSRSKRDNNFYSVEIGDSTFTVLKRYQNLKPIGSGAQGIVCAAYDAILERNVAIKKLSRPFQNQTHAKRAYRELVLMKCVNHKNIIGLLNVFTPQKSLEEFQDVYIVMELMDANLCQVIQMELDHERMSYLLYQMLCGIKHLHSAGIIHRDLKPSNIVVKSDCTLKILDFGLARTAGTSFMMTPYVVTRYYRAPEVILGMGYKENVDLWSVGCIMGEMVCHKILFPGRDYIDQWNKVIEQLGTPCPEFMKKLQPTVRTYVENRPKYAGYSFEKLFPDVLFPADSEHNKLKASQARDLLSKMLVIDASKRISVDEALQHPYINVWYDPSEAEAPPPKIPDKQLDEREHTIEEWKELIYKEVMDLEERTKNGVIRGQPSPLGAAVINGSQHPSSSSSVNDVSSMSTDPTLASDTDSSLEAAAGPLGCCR

Question: How did the IC50 (JNK1) turn out when O=C1c2c(O)cccc2C([C@@H]2O[C@H](CO)[C@@H](O)[C@H](O)[C@H]2O)c2cc(CO)cc(O)c21 (some centres unmarked) [aloin] was run?
Answer: The IC50 was 3920 µM.

Question: What about the IC50 (p38α) of the same compound?
Answer: Its IC50 is 223 µM.
